Results on 1 compound are retold here after PMC5418449, “Characterisation of CCT271850, a selective, oral and potent MPS1 inhibitor, used to directly measure in vivo MPS1 inhibition vs therapeutic efficacy” (British Journal of Cancer, 2017).

Assay [1] deals with 005A. Further details: MTT antiproliferation assay, absorbance at 570 nm, human cancer cell line panel. The conditions noted are these: 3-day MTT; inhibitor; read-out: Table S1. IC50 of CCT271850 determined by MTT and clonogenic assays (CA). / All cell lines were tested at least 2 times. / 3-day MTT. Here is the method:
(§1) Cell lines were obtained from the American Type Culture Collection and grown in their recommended culture medium, supplemented with 10% FBS at 37 °C in 5% CO2. In-house authentication of cell lines by SNP profiling was carried out and cultured cells were passaged for less than 6 months before replacement from early-passage frozen stocks. Cells were regularly screened for Mycoplasma, using a PCR-based assay (VenorGem; Minerva Biolabs, Berlin, Germany). Transfections were carried out at ∼80% confluency with the plasmids indicated, using Lipofectamine LTX (15338030, Life Technologies, Carlsbad, CA, USA) according to the manufacturer's instructions. Cell proliferation assays were carried out by colorimetric MTT method (Sigma, St Louis, MO, USA) as described elsewhere ([Mosmann, 1983]). Briefly, cells were plated in 96-well plates at 2000–5000 cells per well (depending on the cell line) followed by treatment with two-fold dilutions of 0–25 μM drug for 72 h. Absorbance was measured at 570 nm with the Wallac VICTOR2 1420 Multilabel Counter (PerkinElmer, Waltham, MA, USA). To evaluate CCT271850 antiproliferation effects in a large panel of human cancer cell lines, 91 cell lines were treated for 72 h and 14 days at different compound concentrations in growth inhibition assays. The growth inhibition values as measured by IC50 are summarised in Table 2 and Supplementary Table S1. […] Cell lines from colon and head and neck cancers were among the most sensitive.
(In general: Formazan colour is commonly taken as a measure of viable cells.)

The test system of assay [2] is 011B. Set-up: MTT antiproliferation assay, absorbance at 570 nm, human cancer cell line panel. The note with it: 3-day MTT; inhibitor; read-out: Table S1. IC50 of CCT271850 determined by MTT and clonogenic assays (CA). / All cell lines were tested at least 2 times. / 3-day MTT. Here is the method:
as §1

Assay [3] relates to 015B. Set-up: MTT antiproliferation assay, absorbance at 570 nm, human cancer cell line panel. The note with it: 3-day MTT; inhibitor; read-out: Table S1. IC50 of CCT271850 determined by MTT and clonogenic assays (CA). / All cell lines were tested at least 2 times. / 3-day MTT. Here is the method: as §1
Assay [4] has as its system A2780. Further details: MTT antiproliferation assay, absorbance at 570 nm, human cancer cell line panel. The note with it: 3-day MTT; inhibitor; read-out: Table S1. IC50 of CCT271850 determined by MTT and clonogenic assays (CA). / All cell lines were tested at least 2 times. / 3-day MTT. Here is the method:
as §1

The subject of assay [5] is AspC-1. Further details: MTT antiproliferation assay, absorbance at 570 nm, human cancer cell line panel. The note with it: 3-day MTT; inhibitor; read-out: Table S1. IC50 of CCT271850 determined by MTT and clonogenic assays (CA). / All cell lines were tested at least 2 times. / 3-day MTT. Here is the method: as §1
Assay [6] has as its system CFPAC-1. Set-up: MTT antiproliferation assay, absorbance at 570 nm, human cancer cell line panel. The note with it: 3-day MTT; inhibitor; read-out: Table S1. IC50 of CCT271850 determined by MTT and clonogenic assays (CA). / All cell lines were tested at least 2 times. / 3-day MTT. Here is the method:
as §1

For assay [7], the system named is Capan-1. Set-up: MTT antiproliferation assay, absorbance at 570 nm, human cancer cell line panel. The note with it: 3-day MTT; inhibitor; read-out: Table S1. IC50 of CCT271850 determined by MTT and clonogenic assays (CA). / All cell lines were tested at least 2 times. / 3-day MTT. Here is the method: as §1
Assay [8] relates to HN15. Further details: MTT antiproliferation assay, absorbance at 570 nm, human cancer cell line panel. The conditions noted are these: 3-day MTT; inhibitor; read-out: Table S1. IC50 of CCT271850 determined by MTT and clonogenic assays (CA). / All cell lines were tested at least 2 times. / 3-day MTT. Here is the method: as §1
For assay [9], the system named is IGROV1. Set-up: MTT antiproliferation assay, absorbance at 570 nm, human cancer cell line panel. The conditions noted are these: 3-day MTT; inhibitor; read-out: Table S1. IC50 of CCT271850 determined by MTT and clonogenic assays (CA). / All cell lines were tested at least 2 times. / 3-day MTT. Here is the method: as §1
The subject of assay [10] is Kuramochi. Further details: MTT antiproliferation assay, absorbance at 570 nm, human cancer cell line panel. The conditions noted are these: 3-day MTT; inhibitor; read-out: Table S1. IC50 of CCT271850 determined by MTT and clonogenic assays (CA). / All cell lines were tested at least 2 times. / 3-day MTT. Here is the method:
as §1

Assay [11] deals with O13. Further details: MTT antiproliferation assay, absorbance at 570 nm, human cancer cell line panel. The note with it: 3-day MTT; inhibitor; read-out: Table S1. IC50 of CCT271850 determined by MTT and clonogenic assays (CA). / All cell lines were tested at least 2 times. / 3-day MTT. Here is the method: as §1
Assay [12] has as its system OAW42. Set-up: MTT antiproliferation assay, absorbance at 570 nm, human cancer cell line panel. The conditions noted are these: 3-day MTT; inhibitor; read-out: Table S1. IC50 of CCT271850 determined by MTT and clonogenic assays (CA). / All cell lines were tested at least 2 times. / 3-day MTT. Here is the method:
as §1

For assay [13], the system named is OVCAR3. Set-up: MTT antiproliferation assay, absorbance at 570 nm, human cancer cell line panel. The conditions noted are these: 3-day MTT; inhibitor; read-out: Table S1. IC50 of CCT271850 determined by MTT and clonogenic assays (CA). / All cell lines were tested at least 2 times. / 3-day MTT. Here is the method: as §1
Assay [14] relates to PA-1. Further details: MTT antiproliferation assay, absorbance at 570 nm, human cancer cell line panel. The conditions noted are these: 3-day MTT; inhibitor; read-out: Table S1. IC50 of CCT271850 determined by MTT and clonogenic assays (CA). / All cell lines were tested at least 2 times. / 3-day MTT. Here is the method:
as §1

In assay [15] the test system is PANC-1. Further details: MTT antiproliferation assay, absorbance at 570 nm, human cancer cell line panel. The conditions noted are these: 3-day MTT; inhibitor; read-out: Table S1. IC50 of CCT271850 determined by MTT and clonogenic assays (CA). / All cell lines were tested at least 2 times. / 3-day MTT. Here is the method:
as §1

Assay [16] has as its system PATU-8902. Further details: MTT antiproliferation assay, absorbance at 570 nm, human cancer cell line panel. The note with it: 3-day MTT; inhibitor; read-out: Table S1. IC50 of CCT271850 determined by MTT and clonogenic assays (CA). / All cell lines were tested at least 2 times. / 3-day MTT. Here is the method:
as §1

The test system of assay [17] is PATU-8988S. Further details: MTT antiproliferation assay, absorbance at 570 nm, human cancer cell line panel. The note with it: 3-day MTT; inhibitor; read-out: Table S1. IC50 of CCT271850 determined by MTT and clonogenic assays (CA). / All cell lines were tested at least 2 times. / 3-day MTT. Here is the method:
as §1

In assay [18] the test system is RMG1. Further details: MTT antiproliferation assay, absorbance at 570 nm, human cancer cell line panel. The note with it: 3-day MTT; inhibitor; read-out: Table S1. IC50 of CCT271850 determined by MTT and clonogenic assays (CA). / All cell lines were tested at least 2 times. / 3-day MTT. Here is the method:
as §1

Assay [19] deals with SKOV3. Further details: MTT antiproliferation assay, absorbance at 570 nm, human cancer cell line panel. The conditions noted are these: 3-day MTT; inhibitor; read-out: Table S1. IC50 of CCT271850 determined by MTT and clonogenic assays (CA). / All cell lines were tested at least 2 times. / 3-day MTT. Here is the method:
as §1

Assay [20] has as its system SMOV2. Further details: MTT antiproliferation assay, absorbance at 570 nm, human cancer cell line panel. The note with it: 3-day MTT; inhibitor; read-out: Table S1. IC50 of CCT271850 determined by MTT and clonogenic assays (CA). / All cell lines were tested at least 2 times. / 3-day MTT. Here is the method:
as §1

Assay [21] relates to HN6. Set-up: clonogenic colony formation assay, growth inhibition IC50. The note with it: 14-day clonogenic; read-out: Table S1. IC50 of CCT271850 determined by MTT and clonogenic assays (CA). / All cell lines were tested at least 2 times. / 14-day CA. Here is the method:
(§2) To evaluate CCT271850 antiproliferation effects in a large panel of human cancer cell lines, 91 cell lines were treated for 72 h and 14 days at different compound concentrations in growth inhibition assays. The growth inhibition values as measured by IC50 are summarised in Table 2 and Supplementary Table S1. […] Cell lines from colon and head and neck cancers were among the most sensitive.

For assay [22], the system named is PATU-8988S. Further details: 14-day clonogenic growth inhibition assay, human cancer cell line panel. The note with it: 14-day clonogenic assay; inhibitor; read-out: Table S1. IC50 of CCT271850 determined by MTT and clonogenic assays (CA). / All cell lines were tested at least 2 times. / 14-day CA. Here is the method:
as §2

For assay [23], the system named is SMOV2. Further details: 14-day clonogenic growth inhibition assay, human cancer cell line panel. The conditions noted are these: 14-day clonogenic assay; inhibitor; read-out: Table S1. IC50 of CCT271850 determined by MTT and clonogenic assays (CA). / All cell lines were tested at least 2 times. / 14-day CA. Here is the method:
as §2

For assay [24], the system named is TYK-Nu. Set-up: 14-day clonogenic growth inhibition assay, human cancer cell line panel. The conditions noted are these: 14-day clonogenic assay; inhibitor; read-out: Table S1. IC50 of CCT271850 determined by MTT and clonogenic assays (CA). / All cell lines were tested at least 2 times. / 14-day CA. Here is the method: as §2

The structures appear in SMILES notation. Like-named read-outs stand apart in the source and are kept apart here. Where only a bound is given, the exact number is not on record here.

Regarding `COc1cc(-c2cnn(C)c2)ccc1Nc1ncc2ccnc(N[C@@H](C)C(C)(C)C)c2n1` [34h, CCT271850], the IC50 in [1] worked out at 0.94 µM; in assay [2], 2.21 µM; in assay [3], 0.35 µM; in assay [4] it was 0.137 µM; in assay [5], 2.4 µM; in [6] it was 0.91 µM. In addition, the IC50 in assay [7] is 2.05 µM; in assay [8] it was 1.75 µM; in assay [9] it was 3.59 µM; in assay [10], 4.86 µM; in assay [11] it was 1.26 µM; in assay [12], 0.88 µM. For the same compound, the IC50 in [13] was over 100 µM; in assay [14], 2.25 µM; in assay [15] it was 1.38 µM; in [16], 0.51 µM; in assay [17], 2.02 µM; in assay [18], 0.111 µM. For the same compound, the IC50 in [19] was over 100 µM; in assay [20] it was 0.795 µM; in assay [21] it was 15 µM; in assay [22] it was 0.11 µM; in assay [23], 0.014 µM; in [24], 0.073 µM.
